Data from patent US20230109801A1 (Blue Oak Pharmaceuticals, Inc., priority 2020, published 2023).
Counter-ions that a name gives are not always drawn.

Tested on: mice
Test: SmartCube in vivo neuropharmacological behavioral assay
Details: for minimal effective dose: Mus musculus, ip, dose having 50% or more total activity in SmartCube, i.p., read-out: MED (minimal effective dose); for AD: antidepressant, percent probability / AG: analgesic, percent probability / AP: antipsychotic, percent probability / AX: anxiolytic, percent probability / CE: cognitive enhancer, percent probability / HA: hallucinogenic, percent probability / MS: mood stabilizer, percent probability / PS, percent probability / SD: sedative hypnotic, percent probability / SE: side effects, percent probability / UN: uncharacterized CNS activity, percent probability / XG: anxiogenic, percent probability: SmartCube, i.p. 15 min before test, at the MED
Method: The compounds were evaluated for their CNS related properties (e.g., the treatment, prevention or diagnosis of CNS or CNS-related disorders and/or amelioration of symptoms) using neuropharmacological screening methods described in S. L. Roberts et al., Front. Neurosci. 2011, 5:103 (hereinafter referred to as “Roberts,” the contents of which are incorporated herein by reference in their entirety).
According to Roberts, intact systems are useful in detecting improvement in disease-relevant endpoints, because psychiatric diseases generally result from disorders of cell-cell communication or circuitry. The endpoints are typically behavioral in nature, often requiring human observation and interpretation. In order to test multiple compounds for behavioral effects relevant to neurological and psychiatric diseases and disorders, PsychoGenics, Inc. (Paramus, N.J. “PGI”) developed SmartCube®, an automated system in which behaviors of compound-treated mice are captured by digital video and analyzed with computer algorithms to facilitate testing of multiple compounds for behavioral effects relevant to psychiatric disease. (D. Brunner et al., Drug Discov. Today 2002, 7:S107-S112; Alexandrov et al., Eur. J. Pharmacol. 2015, 753:127-134; the contents of each of which are incorporated herein by reference in their entirety).
The SmartCube® system is described in Example 2.2 of U.S. Pat. No. 9,758,529 and Example 289 of WIPO Publication No. WO2018/023070, the contents of each of which are incorporated herein by reference in their entirety.
According to the present disclosure, compounds identified may be evaluated using the SmartCube® system. The results of such analysis correlate certain patterns or combinations of behaviors to CNS effects along a percent probability scale of 0-100 where zero (O) reflects the limit of quantitation (LOQ).
The compounds of the present disclosure were evaluated for their CNS related properties (e.g., the treatment, prevention or diagnosis of CNS or CNS-related disorders and/or amelioration of symptoms) using neuropharmacological screening methods described in S. L. Roberts et al., Front. Neurosci. 2011, 5:103 (hereinafter referred to as “Roberts,” the contents of which are incorporated herein by reference in their entirety).
The SmartCube® system described herein was utilized to compare the behavioral signature of a test compound to a database of behavioral signatures obtained using a large set of diverse reference compounds (including but not limited to antipsychotics, anxiolytics, antidepressants and bipolar disorder medicine), thereby predicting the neuropharmacological effects of a test compound by similarity to major classes of compounds. It produces an activity signature indicating the probability that the activity of the test compound at the administered dose matches a given class of neuropharmacological agents. The test compound is simultaneously compared against multiple classes of agents; thus, a separate probability is generated for each behavioral effect measured (such as but not limited to anxiolytic activity and analgesic activity).
The compounds of the present disclosure were dissolved in a mixture of Pharmasolve™ (N-methyl-2-pyrrolidone (NMP)) and were injected i.p. 15 min. before the behavioral test. For each compound, injections were administered at different dose levels (e.g., 0.3, 1, 3, 10 and 30 mg per kg (mpk)). A compound's minimal effective dose (MED; see Table 3) is a measure of the compound's potency. The MED was defined as the dose (in mpk) having 50% or more total activity in SmartCube®. For each behavioral effect measured, results at the MED are presented. CNS activities of the compounds were recorded (see Table 2). In Table 1, a key to the percent probabilities (probability×100) for each behavioral effect (“X”) are defined provided, where LOQ is the limit of quantification.

| Compound | minimal effective dose | AD: antidepressant, percent probability | AG: analgesic, percent probability | AP: antipsychotic, percent probability | AX: anxiolytic, percent probability | CE: cognitive enhancer, percent probability | HA: hallucinogenic, percent probability | MS: mood stabilizer, percent probability | PS, percent probability | SD: sedative hypnotic, percent probability | SE: side effects, percent probability | UN: uncharacterized CNS activity, percent probability | XG: anxiogenic, percent probability |
| --- | --- | --- | --- | --- | --- | --- | --- | --- | --- | --- | --- | --- | --- |
| C1=CC2NC1c1ccccc12 [Compound 52, 11-Azatricyclo[6.2.1.0^2,7]undeca-2,4,6,9-tetraene hydrochloride] | > 30 mg/kg | + (LOQ ≤ X < 5%) | + (LOQ ≤ X < 5%) | + (LOQ ≤ X < 5%) | + (LOQ ≤ X < 5%) | + (LOQ ≤ X < 5%) | + (LOQ ≤ X < 5%) | + (LOQ ≤ X < 5%) | + (LOQ ≤ X < 5%) | + (LOQ ≤ X < 5%) | + (LOQ ≤ X < 5%) | + (LOQ ≤ X < 5%) | + (LOQ ≤ X < 5%) |
| CC(C)N1C2CCC1c1cc(Cl)ccc12 (stereo not shown) [Compound 28, 4-Chloro-11-(propan-2-yl)-11-azatricyclo[6.2.1.0^2,7]undeca-2,4,6-triene hydrochloride] | > 30 mg/kg | +++ (25% ≤ X < 50%) | + (LOQ ≤ X < 5%) | + (LOQ ≤ X < 5%) | ++ (5% ≤ X < 25%) | + (LOQ ≤ X < 5%) | + (LOQ ≤ X < 5%) | + (LOQ ≤ X < 5%) | + (LOQ ≤ X < 5%) | + (LOQ ≤ X < 5%) | ++ (5% ≤ X < 25%) | ++ (5% ≤ X < 25%) | + (LOQ ≤ X < 5%) |
| CC[C@@H](C)N1C2CCC1c1ccccc12 [Compound 33, 11-[(2R)-Butan-2-yl]-11-azatricyclo[6.2.1.0^2,7]undeca-2,4,6-triene hydrochloride] | 1 to 10 mg/kg | + (LOQ ≤ X < 5%) | + (LOQ ≤ X < 5%) | + (LOQ ≤ X < 5%) | ++ (5% ≤ X < 25%) | + (LOQ ≤ X < 5%) | + (LOQ ≤ X < 5%) | + (LOQ ≤ X < 5%) | ++ (5% ≤ X < 25%) | + (LOQ ≤ X < 5%) | + (LOQ ≤ X < 5%) | ++++ (50% ≤ X <1 00%) | + (LOQ ≤ X < 5%) |
| CC1=CC2c3ccccc3C1N2C(C)C (stereo not shown) [Compound 62, 9-Methyl-11-(propan-2-yl)-11-azatricyclo[6.2.1.0^2,7]undeca-2,4,6,9-tetraene hydrochloride] | 1 to 10 mg/kg | ++ (5% ≤ X < 25%) | ++ (5% ≤ X < 25%) | + (LOQ ≤ X < 5%) | ++ (5% ≤ X < 25%) | + (LOQ ≤ X < 5%) | + (LOQ ≤ X < 5%) | + (LOQ ≤ X < 5%) | + (LOQ ≤ X < 5%) | + (LOQ ≤ X < 5%) | + (LOQ ≤ X < 5%) | ++ (5% ≤ X < 25%) | + (LOQ ≤ X < 5%) |
| c1ccc2c(c1)C1CCC2N1C1CC1 [Compound 45, 11-Cyclopropyl-11-azatricyclo[6.2.1.0^2,7]undeca-2,4,6-triene hydrochloride] | 10 to 30 mg/kg | ++ (5% ≤ X < 25%) | ++ (5% ≤ X < 25%) | ++ (5% ≤ X < 25%) | ++ (5% ≤ X < 25%) | ++ (5% ≤ X < 25%) | + (LOQ ≤ X < 5%) | + (LOQ ≤ X < 5%) | + (LOQ ≤ X < 5%) | + (LOQ ≤ X < 5%) | + (LOQ ≤ X < 5%) | ++ (5% ≤ X < 25%) | + (LOQ ≤ X < 5%) |
| COc1ccc2c(c1)C1CCC2N1C(C)C (stereo not shown) [Compound 35, 4-Methoxy-11-(propan-2-yl)-11-azatricyclo[6.2.1.0^2,7]undeca-2,4,6-triene] | 1 to 10 mg/kg | + (LOQ ≤ X < 5%) | + (LOQ ≤ X < 5%) | + (LOQ ≤ X < 5%) | ++ (5% ≤ X < 25%) | + (LOQ ≤ X < 5%) | + (LOQ ≤ X < 5%) | + (LOQ ≤ X < 5%) | + (LOQ ≤ X < 5%) | +++ (25% ≤ X < 50%) | + (LOQ ≤ X < 5%) | ++ (5% ≤ X < 25%) | + (LOQ ≤ X < 5%) |
| CC1C(C)C2c3ccccc3C1N2C(C)C (stereo not shown) [Compound 49, 9,10-Dimethyl-11-(propan-2-yl)-11-azatricyclo[6.2.1.0^2,7]undeca-2,4,6-triene hydrochloride] | 10 to 30 mg/kg | – | – | – | – | – | – | – | – | – | – | – | – |
| c1ccc2c(c1)C1CCC2N1 [Compound 41, hydrochloride] | 10 to 30 mg/kg | + (LOQ ≤ X < 5%) | ++ (5% ≤ X < 25%) | + (LOQ ≤ X < 5%) | ++ (5% ≤ X < 25%) | ++ (5% ≤ X < 25%) | + (LOQ ≤ X < 5%) | + (LOQ ≤ X < 5%) | + (LOQ ≤ X < 5%) | + (LOQ ≤ X < 5%) | + (LOQ ≤ X < 5%) | ++ (5% ≤ X < 25%) | + (LOQ ≤ X < 5%) |
| CC(C)C(C)N1C2CCC1c1ccccc12 (stereo not shown) [Compound 47, 11-(3-Methylbutan-2-yl)-11-azatricyclo[6.2.1.0^2,7]undeca-2,4,6-triene hydrochloride] | 10 to 30 mg/kg | ++++ (50% ≤ X <1 00%) | + (LOQ ≤ X < 5%) | + (LOQ ≤ X < 5%) | + (LOQ ≤ X < 5%) | + (LOQ ≤ X < 5%) | + (LOQ ≤ X < 5%) | + (LOQ ≤ X < 5%) | + (LOQ ≤ X < 5%) | + (LOQ ≤ X < 5%) | + (LOQ ≤ X < 5%) | ++ (5% ≤ X < 25%) | + (LOQ ≤ X < 5%) |
| CC1CC2NC1c1ccccc12 (stereo not shown) [Compound 50, 9-Methyl-11-azatricyclo[6.2.1.0^2,7]undeca-2,4,6-triene hydrochloride] | 10 to 30 mg/kg | ++ (5% ≤ X < 25%) | ++ (5% ≤ X < 25%) | + (LOQ ≤ X < 5%) | + (LOQ ≤ X < 5%) | ++ (5% ≤ X < 25%) | + (LOQ ≤ X < 5%) | + (LOQ ≤ X < 5%) | + (LOQ ≤ X < 5%) | + (LOQ ≤ X < 5%) | + (LOQ ≤ X < 5%) | +++ (25% ≤ X < 50%) | + (LOQ ≤ X < 5%) |
